From US20250114338A1, “TETRAHYDRO-PYRIDO[3,4-b]INDOLE ESTROGEN RECEPTOR MODULATORS AND USES THEREOF” (Genentech, Inc., priority 2014, published 2025) come the findings set out here.

This assay concerns ER-alpha MCF7. As to the kind of experiment: ER-alpha MCF7 HCS EC50; stated as measured by in vitro cell proliferation assays of Examples 902 and 903. The note with it: Homo sapiens, MCF7, MCF7 cells; Table 2. The format is cell-based. In outline:
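MCF7 cells seeded 1000-2000 cells/well for 16 h, then treated with nine-point 1:2 DMSO dilution series in quadruplicate at 37 °C, 5% CO2 for 4 days. Viable cells quantified by CellTiter-Glo ATP luminescence; EC50 calculated. Controls: fulvestrant at final 100 nM, DMSO 0.2% v/v.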

A value given as a limit tells only on which side of the number the result lay.

As to `C[C@@H]1Cc2c([nH]c3ccccc23)[C@@H](c2c(F)cc(OC3CN(CCCF)C3)cc2F)N1C[C@H](C)C(=O)O` [Example 349, (S)-3-((1R,3R)-1-(2,6-difluoro-4-((1-(3-fluoropropyl)azetidin-3-yl)oxy)phenyl)-3-methyl-1,3,4,9-tetrahydro-2H-pyrido[3,4-b]indol-2-yl)-2-methylpropanoic acid], the 50% effective concentration (EC50) (as a rule, the concentration needed to bring the measured effect to its halfway point) stood at 2.03 nM.

Consider `CC(CN1C(C)Cc2c([nH]c3ccccc23)C1c1c(F)cc(OC2CN(CCCF)C2)cc1F)C(=O)O` (stereo not drawn) [Example 351, 3-[1-[2,6-difluoro-4-[1-(3-fluoropropyl)azetidin-3-yl]oxy-phenyl]-3-methyl-1,3,4,9-tetrahydropyrido[3,4-b]indol-2-yl]-2-methyl-propanoic acid], for which the EC50 came to 33 nM.

Regarding `C[C@@H]1Cc2c([nH]c3ccccc23)[C@@H](c2c(F)cc(NCCN3CC(CF)C3)cc2F)N1C[C@@](C)(F)CO` [Example 352, (R)-3-((1R,3R)-1-(2,6-difluoro-4-((2-(3-(fluoromethyl)azetidin-1-yl)ethyl)amino)phenyl)-3-methyl-1,3,4,9-tetrahydro-2H-pyrido[3,4-b]indol-2-yl)-2-fluoro-2-methylpropan-1-ol], the concentration giving a half-maximal response (EC50) came out at 0.685 nM.

`C[C@@H]1Cc2c([nH]c3ccccc23)[C@@H](c2c(F)cc(NCCN3CC(CF)C3)cc2F)N1C[C@](C)(F)CO` [Example 353, (S)-3-((1R,3R)-1-(2,6-difluoro-4-((2-(3-(fluoromethyl)azetidin-1-yl)ethyl)amino)phenyl)-3-methyl-1,3,4,9-tetrahydro-2H-pyrido[3,4-b]indol-2-yl)-2-fluoro-2-methylpropan-1-ol]: the concentration for a half-maximal effect (EC50) came to 0.033 nM.

With `C[C@H](CN1[C@H](c2c(F)cc(NC3CN(CCCF)C3)cc2F)c2[nH]c3ccccc3c2C[C@H]1C)C(=O)O` [Example 354, (2R)-3-[(1R,3R)-1-[2,6-difluoro-4-[[1-(3-fluoropropyl)azetidin-3-yl]amino]phenyl]-3-methyl-1,3,4,9-tetrahydropyrido[3,4-b]indol-2-yl]-2-methyl-propanoic acid], the 50% effective concentration (EC50) was 1 nM.

Turning to `C[C@H]1Cc2c([nH]c3ccc(F)cc23)[C@H](c2c(F)cc(OCCN3CC(CF)C3)cc2F)N1CC(F)(F)F` [Example 355, (1S,3S)-1-(2,6-difluoro-4-(2-(3-(fluoromethyl)azetidin-1-yl)ethoxy)phenyl)-6-fluoro-3-methyl-2-(2,2,2-trifluoroethyl)-2,3,4,9-tetrahydro-1H-pyrido[3,4-b]indole], the EC50 worked out at 29.2 nM.

Take `C[C@@H]1Cc2c([nH]c3ccc(F)cc23)[C@@H](c2c(F)cc(OCCN3CC(CF)C3)cc2F)N1CC(F)(F)F` [Example 356, (1R,3R)-1-(2,6-difluoro-4-(2-(3-(fluoromethyl)azetidin-1-yl)ethoxy)phenyl)-6-fluoro-3-methyl-2-(2,2,2-trifluoroethyl)-2,3,4,9-tetrahydro-1H-pyrido[3,4-b]indole]: the EC50 was 0.509 nM.

As to `C[C@H]1Cc2c([nH]c3ccc(F)cc23)[C@H](c2c(F)cc(OC3CN(CCCF)C3)cc2F)N1CC(F)(F)F` [Example 357, (1S,3S)-1-(2,6-difluoro-4-((1-(3-fluoropropyl)azetidin-3-yl)oxy)phenyl)-6-fluoro-3-methyl-2-(2,2,2-trifluoroethyl)-2,3,4,9-tetrahydro-1H-pyrido[3,4-b]indole], the EC50 was determined as 26.1 nM.

On to `C[C@@H]1Cc2c([nH]c3ccc(F)cc23)[C@@H](c2c(F)cc(OC3CN(CCCF)C3)cc2F)N1CC(F)(F)F` [Example 358, (1R,3R)-1-(2,6-difluoro-4-((1-(3-fluoropropyl)azetidin-3-yl)oxy)phenyl)-6-fluoro-3-methyl-2-(2,2,2-trifluoroethyl)-2,3,4,9-tetrahydro-1H-pyrido[3,4-b]indole], for which the concentration for a half-maximal effect (EC50) worked out at 0.417 nM.

Regarding `C[C@@H]1Cc2c([nH]c3ccc(F)cc23)[C@@H](c2c(F)cc(OCCN3CC(CF)C3)cc2F)N1CC(F)(F)CO` [Example 359, 3-((1R,3R)-1-(2,6-difluoro-4-(2-(3-(fluoromethyl)azetidin-1-yl)ethoxy)phenyl)-6-fluoro-3-methyl-1,3,4,9-tetrahydro-2H-pyrido[3,4-b]indol-2-yl)-2,2-difluoropropan-1-ol], the EC50 came to 0.552 nM.

Regarding `C[C@H]1Cc2c([nH]c3ccc(F)cc23)[C@H](c2c(F)cc(OCCN3CC(CF)C3)cc2F)N1CC(F)(F)CO` [Example 360, 3-((1S,3S)-1-(2,6-difluoro-4-(2-(3-(fluoromethyl)azetidin-1-yl)ethoxy)phenyl)-6-fluoro-3-methyl-1,3,4,9-tetrahydro-2H-pyrido[3,4-b]indol-2-yl)-2,2-difluoropropan-1-ol], the EC50 worked out at 9 nM.

As for `C[C@@H]1Cc2c([nH]c3ccccc23)[C@@H](c2c(F)cc(OCCN3CC(CF)C3)cc2F)N1CCC(F)(F)F` [Example 361, (1R,3R)-1-[2,6-difluoro-4-[2-[3-(fluoromethyl)azetidin-1-yl]ethoxy]phenyl]-3-methyl-2-(3,3,3-trifluoropropyl)-1,3,4,9-tetrahydropyrido[3,4-b]indole], the EC50 amounted to 3 nM.

For `C[C@@H]1Cc2c([nH]c3ccccc23)[C@H](c2c(F)cc(OCCN3CC(CF)C3)cc2F)N1CCC(F)(F)F` [Example 362, (1S,3R)-1-[2,6-difluoro-4-[2-[3-(fluoromethyl)azetidin-1-yl]ethoxy]phenyl]-3-methyl-2-(3,3,3-trifluoropropyl)-1,3,4,9-tetrahydropyrido[3,4-b]indole], the EC50 is greater than 100 nM.

As for `C[C@@H]1Cc2c([nH]c3ccc(F)cc23)[C@@H](c2c(F)cc(OC3CN(CCCF)C3)cc2F)N1CC(F)(F)CO` [Example 363, 3-((1R,3R)-1-(2,6-difluoro-4-((1-(3-fluoropropyl)azetidin-3-yl)oxy)phenyl)-6-fluoro-3-methyl-1,3,4,9-tetrahydro-2H-pyrido[3,4-b]indol-2-yl)-2,2-difluoropropan-1-ol], the EC50 was determined as 0.166 nM.

As for `C[C@H]1Cc2c([nH]c3ccc(F)cc23)[C@H](c2c(F)cc(OC3CN(CCCF)C3)cc2F)N1CC(F)(F)CO` [Example 364, 3-((1S,3S)-1-(2,6-difluoro-4-((1-(3-fluoropropyl)azetidin-3-yl)oxy)phenyl)-6-fluoro-3-methyl-1,3,4,9-tetrahydro-2H-pyrido[3,4-b]indol-2-yl)-2,2-difluoropropan-1-ol], the EC50 worked out at 9 nM.

For the compound `C[C@@H]1Cc2c([nH]c3ccccc23)[C@@H](c2c(F)cc(NC3CN(CCCF)C3)cc2F)N1C[C@H](C)C(=O)O` [Example 367, (2S)-3-[(1R,3R)-1-[2,6-difluoro-4-[[1-(3-fluoropropyl)azetidin-3-yl]amino]phenyl]-3-methyl-1,3,4,9-tetrahydropyrido[3,4-b]indol-2-yl]-2-methyl-propanoic acid], the EC50 is 8 nM.

For `C[C@@H]1Cc2c([nH]c3ccc(F)cc23)[C@@H](c2c(F)cc(OC3CN(CCCF)C3)cc2F)N1C[C@](C)(F)CO` [Example 368, 3-(1-{2,6-Difluoro-4-[1-(3-fluoro-propyl)-azetidin-3-yloxy]-phenyl}-6-fluoro-3-methyl-1,3,4,9-tetrahydro-beta-carbolin-2-yl)-2-fluoro-2-methyl-propan-1-ol], the half-maximal effective concentration (EC50) was found to be 0.546 nM.

With `C[C@H]1Cc2c([nH]c3ccc(F)cc23)[C@H](c2c(F)cc(OC3CN(CCCF)C3)cc2F)N1C[C@@](C)(F)CO` [Example 369, 3-((1S,3S)-1-(2,6-difluoro-4-((1-(3-fluoropropyl)azetidin-3-yl)oxy)phenyl)-6-fluoro-3-methyl-1,3,4,9-tetrahydro-2H-pyrido[3,4-b]indol-2-yl)-2-fluoro-2-methylpropan-1-ol], the EC50 amounted to 24 nM.

Consider `C[C@@H]1Cc2c([nH]c3ccc(F)cc23)[C@@H](c2c(F)cc(OC3CN(CCCF)C3)cc2F)N1C[C@@](C)(F)CO` [Example 370, 3-((1R,3R)-1-(2,6-difluoro-4-((1-(3-fluoropropyl)azetidin-3-yl)oxy)phenyl)-6-fluoro-3-methyl-1,3,4,9-tetrahydro-2H-pyrido[3,4-b]indol-2-yl)-2-fluoro-2-methylpropan-1-ol], for which the EC50 is 0.203 nM.

`C[C@H]1Cc2c([nH]c3ccc(F)cc23)[C@H](c2c(F)cc(OC3CN(CCCF)C3)cc2F)N1C[C@](C)(F)CO` [Example 371, 3-((1S,3S)-1-(2,6-difluoro-4-((1-(3-fluoropropyl)azetidin-3-yl)oxy)phenyl)-6-fluoro-3-methyl-1,3,4,9-tetrahydro-2H-pyrido[3,4-b]indol-2-yl)-2-fluoro-2-methylpropan-1-ol]: the EC50 was 9 nM.

As for `C[C@@H]1Cc2c([nH]c3ccc(F)cc23)[C@@H](c2c(F)cc(NC3CN(CCCF)C3)cc2F)N1CC(F)(F)F` [Example 372, N-(3,5-difluoro-4-((1R,3R)-6-fluoro-3-methyl-2-(2,2,2-trifluoroethyl)-2,3,4,9-tetrahydro-1H-pyrido[3,4-b]indol-1-yl)phenyl)-1-(3-fluoropropyl)azetidin-3-amine], the EC50 was 0.198 nM.

Take `C[C@H]1Cc2c([nH]c3ccc(F)cc23)[C@H](c2c(F)cc(NC3CN(CCCF)C3)cc2F)N1CC(F)(F)F` [Example 373, N-(3,5-difluoro-4-((1S,3S)-6-fluoro-3-methyl-2-(2,2,2-trifluoroethyl)-2,3,4,9-tetrahydro-1H-pyrido[3,4-b]indol-1-yl)phenyl)-1-(3-fluoropropyl)azetidin-3-amine]: the EC50 came to 18 nM.

Regarding `C[C@@H]1Cc2c([nH]c3ccccc23)[C@@H](c2c(F)cc(OCCN3CC(CF)C3)cc2F)N1CC(C)(C)C(=O)O` [Example 374, 3-((1R,3R)-1-(2,6-difluoro-4-(2-(3-(fluoromethyl)azetidin-1-yl)ethoxy)phenyl)-3-methyl-1,3,4,9-tetrahydro-2H-pyrido[3,4-b]indol-2-yl)-2,2-dimethylpropanoic acid], the EC50 was determined as 1.55 nM.

`C[C@@H]1Cc2c([nH]c3ccccc23)[C@@H](c2c(F)cc(OC3CN(CCCF)C3)cc2F)N1C[C@H](CO)C(F)(F)F` [Example 375, (R)-2-(((1R,3R)-1-(2,6-difluoro-4-((1-(3-fluoropropyl)azetidin-3-yl)oxy)phenyl)-3-methyl-1,3,4,9-tetrahydro-2H-pyrido[3,4-b]indol-2-yl)methyl)-3,3,3-trifluoropropan-1-ol]: the half-maximal effective concentration (EC50) was determined as 0.764 nM.
